From patent US20250382297A1, “INHIBITORS OF FGFR2 AND FGFR3 AND USES THEREOF” (Insilico Medicine IP Limited, priority 2022, published 2025)
Like-named read-outs stand apart in the source and are kept apart here.

What was measured:
FGFR1 = FGFR1 (Homo sapiens (Human), UniProt P11362); assay: FGFR biochemical assay (LanthaScreen TR-FRET kinase assay), FGFR1
Protocol: (§1) Convert Ratio values to percent inhibition values (Percent inhibition=(max−sample Ratio)/(max−min)*100) where “min” means the Ratio of no enzyme control and “max” means the Ratio of DMSO control. • Data are analyzed and curve fitting is performed by XLFit Excel add-in version 5.4.0.8. The IC50 calculation equation is: Y=Bottom+(Top-Bottom)/(1+ (IC50/X)^HillSlope.

FGFR4 = FGFR4 (Homo sapiens (Human), UniProt P22455); assay: FGFR biochemical assay (LanthaScreen TR-FRET kinase assay), FGFR4
Protocol: as §1

FGFR2 = FGFR2 (Homo sapiens (Human), UniProt P21802); assay: FGFR biochemical assay (LanthaScreen TR-FRET kinase assay), FGFR2
Sequence of FGFR2 (P21802 22-821): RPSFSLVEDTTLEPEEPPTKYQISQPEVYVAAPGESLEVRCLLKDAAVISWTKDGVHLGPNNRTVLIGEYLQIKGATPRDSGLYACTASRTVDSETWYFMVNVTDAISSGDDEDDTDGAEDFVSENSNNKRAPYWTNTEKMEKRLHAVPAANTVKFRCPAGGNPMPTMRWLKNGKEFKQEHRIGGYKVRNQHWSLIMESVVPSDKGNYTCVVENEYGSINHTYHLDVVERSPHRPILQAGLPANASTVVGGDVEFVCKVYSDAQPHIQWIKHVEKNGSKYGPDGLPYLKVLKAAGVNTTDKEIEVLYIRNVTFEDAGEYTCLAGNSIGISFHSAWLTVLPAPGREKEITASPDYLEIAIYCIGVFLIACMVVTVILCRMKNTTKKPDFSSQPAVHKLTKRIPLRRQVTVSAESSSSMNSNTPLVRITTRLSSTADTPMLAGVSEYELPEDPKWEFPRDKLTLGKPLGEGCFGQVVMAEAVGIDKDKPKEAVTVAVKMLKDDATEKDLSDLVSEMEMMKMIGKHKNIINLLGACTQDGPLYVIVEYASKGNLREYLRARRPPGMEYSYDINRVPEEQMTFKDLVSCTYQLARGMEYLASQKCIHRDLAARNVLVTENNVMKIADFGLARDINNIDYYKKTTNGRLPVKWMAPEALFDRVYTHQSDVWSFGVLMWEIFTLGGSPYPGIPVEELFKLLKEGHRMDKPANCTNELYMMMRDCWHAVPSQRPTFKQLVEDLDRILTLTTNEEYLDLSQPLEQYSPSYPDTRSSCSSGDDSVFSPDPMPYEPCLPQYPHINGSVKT
Protocol: as §1

FGFR3 = FGFR3 (Homo sapiens (Human), UniProt P22607); assay: FGFR biochemical assay (LanthaScreen TR-FRET kinase assay), FGFR3
Sequence of FGFR3 (P22607 23-806): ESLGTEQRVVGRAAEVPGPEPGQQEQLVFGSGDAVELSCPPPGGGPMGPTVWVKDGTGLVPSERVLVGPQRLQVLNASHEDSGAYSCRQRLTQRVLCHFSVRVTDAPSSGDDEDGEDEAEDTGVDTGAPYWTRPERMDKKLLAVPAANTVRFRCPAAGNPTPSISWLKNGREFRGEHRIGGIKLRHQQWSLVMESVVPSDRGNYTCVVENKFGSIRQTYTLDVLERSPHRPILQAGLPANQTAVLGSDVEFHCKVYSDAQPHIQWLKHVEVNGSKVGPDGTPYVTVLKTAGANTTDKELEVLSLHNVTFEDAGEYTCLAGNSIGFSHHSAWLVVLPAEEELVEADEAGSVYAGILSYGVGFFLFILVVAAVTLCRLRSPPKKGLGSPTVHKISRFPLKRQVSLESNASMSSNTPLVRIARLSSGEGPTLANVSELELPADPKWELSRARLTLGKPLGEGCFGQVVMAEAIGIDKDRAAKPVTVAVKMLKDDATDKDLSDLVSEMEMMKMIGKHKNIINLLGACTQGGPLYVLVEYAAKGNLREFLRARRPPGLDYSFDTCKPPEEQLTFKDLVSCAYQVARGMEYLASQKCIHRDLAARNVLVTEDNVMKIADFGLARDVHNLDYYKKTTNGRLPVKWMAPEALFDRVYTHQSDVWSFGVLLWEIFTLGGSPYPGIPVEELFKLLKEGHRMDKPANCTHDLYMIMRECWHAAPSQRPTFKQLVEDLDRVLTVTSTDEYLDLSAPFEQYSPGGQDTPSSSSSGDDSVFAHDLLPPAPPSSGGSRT
Protocol: as §1

[1] = read-out: FGFR2 IC50, incubation with enzyme at room temperature for 10 minutes before substrate, ATP 22 μM, FGFR2 0.01 nM

Sequence of FGFR4 (P22455 22-802): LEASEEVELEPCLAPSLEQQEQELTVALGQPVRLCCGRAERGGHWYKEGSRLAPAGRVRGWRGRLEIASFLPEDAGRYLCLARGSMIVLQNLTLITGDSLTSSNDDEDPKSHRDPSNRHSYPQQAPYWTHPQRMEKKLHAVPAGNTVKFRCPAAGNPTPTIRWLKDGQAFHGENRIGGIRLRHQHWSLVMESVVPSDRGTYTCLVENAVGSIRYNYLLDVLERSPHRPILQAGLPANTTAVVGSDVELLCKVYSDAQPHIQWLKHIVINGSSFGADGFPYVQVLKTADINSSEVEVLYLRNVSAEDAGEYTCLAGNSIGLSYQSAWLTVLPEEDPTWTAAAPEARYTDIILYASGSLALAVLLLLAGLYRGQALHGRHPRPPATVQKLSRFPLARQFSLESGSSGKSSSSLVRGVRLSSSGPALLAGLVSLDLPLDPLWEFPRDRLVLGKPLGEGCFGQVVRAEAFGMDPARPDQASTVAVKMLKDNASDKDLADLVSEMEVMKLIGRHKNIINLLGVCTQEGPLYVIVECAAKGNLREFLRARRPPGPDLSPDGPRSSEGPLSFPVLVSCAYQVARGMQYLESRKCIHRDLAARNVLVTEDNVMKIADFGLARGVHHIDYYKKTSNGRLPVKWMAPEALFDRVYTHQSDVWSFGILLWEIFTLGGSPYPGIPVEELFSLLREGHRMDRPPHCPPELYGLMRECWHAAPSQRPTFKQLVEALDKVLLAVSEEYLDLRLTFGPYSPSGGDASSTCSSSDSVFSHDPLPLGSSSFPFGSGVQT
Sequence of FGFR1 (P11362 22-822): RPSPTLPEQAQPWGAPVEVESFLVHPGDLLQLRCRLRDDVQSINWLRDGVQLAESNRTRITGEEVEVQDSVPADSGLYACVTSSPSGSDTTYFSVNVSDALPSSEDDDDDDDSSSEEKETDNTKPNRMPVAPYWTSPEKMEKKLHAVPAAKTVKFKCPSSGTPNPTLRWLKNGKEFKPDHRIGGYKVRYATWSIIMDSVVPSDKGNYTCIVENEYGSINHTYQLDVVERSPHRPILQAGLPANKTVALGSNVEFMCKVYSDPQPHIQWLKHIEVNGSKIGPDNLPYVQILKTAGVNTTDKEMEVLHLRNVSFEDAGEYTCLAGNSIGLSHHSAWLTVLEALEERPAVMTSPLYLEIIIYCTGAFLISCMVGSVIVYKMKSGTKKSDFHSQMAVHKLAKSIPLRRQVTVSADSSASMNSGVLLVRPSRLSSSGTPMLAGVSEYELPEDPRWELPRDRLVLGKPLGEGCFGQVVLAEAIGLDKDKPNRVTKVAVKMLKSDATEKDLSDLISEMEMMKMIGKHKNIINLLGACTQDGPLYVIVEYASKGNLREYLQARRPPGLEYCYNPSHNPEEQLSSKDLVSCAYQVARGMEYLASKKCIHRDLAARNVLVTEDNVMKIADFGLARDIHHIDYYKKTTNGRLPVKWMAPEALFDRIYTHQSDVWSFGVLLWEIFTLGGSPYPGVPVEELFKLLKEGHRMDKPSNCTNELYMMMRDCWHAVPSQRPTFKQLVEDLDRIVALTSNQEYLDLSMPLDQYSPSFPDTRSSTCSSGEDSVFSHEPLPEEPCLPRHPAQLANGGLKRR

Compound	IC50 (FGFR1) [nM]	IC50 (FGFR4) [nM]	IC50 (FGFR2; [1]) [nM]	IC50 (FGFR3) [nM]	IC50 (FGFR4; read-out: FGFR4 IC50, incubation with enzyme at room temperature for 10 minutes before substrate, ATP 238 μM, FGFR4 1 nM) [nM]	IC50 (FGFR2) [nM]
C=CC(=O)Nc1ccc(-c2c(-c3ccc(Oc4cccc(C)n4)cc3)c(C(N)=O)c3cncc(C)n23)cc1 [Example 5, 6-(4-acrylamidophenyl)-4-methyl-7-(4-((6-methylpyridin-2-yl)oxy)phenyl)pyrrolo[1,2-a]pyrazine-8-carboxamide]	100 to 1000	100 to 1000	< 10	10 to 100		
C=CC(=O)Nc1ccc(-c2c(-c3ccc(Oc4cccc(C)n4)cc3)c(C(N)=O)c3cnc(C)cn23)cc1 [Example 7, 6-(4-acrylamidophenyl)-3-methyl-7-(4-((6-methylpyridin-2-yl)oxy)phenyl)pyrrolo[1,2-a]pyrazine-8-carboxamide]	100 to 1000	100 to 1000	< 10	10 to 100		
C=CC(=O)Nc1ccc(-c2c(-c3ccc(Oc4cccc(C)n4)cc3)c(C(N)=O)c3cnc(CO)cn23)cc1 [Example 11, 6-(4-acrylamidophenyl)-3-(hydroxymethyl)-7-(4-((6-methylpyridin-2-yl)oxy)phenyl)pyrrolo[1,2-a]pyrazine-8-carboxamide]	100 to 1000	100 to 1000	< 10	10 to 100		
C=CC(=O)Nc1ccc(-c2c(-c3ccc(Oc4cccc(C)n4)cc3)c(C(N)=O)c3n2CCN(C)C3)cc1 [Example 13, 6-(4-acrylamidophenyl)-2-methyl-7-(4-((6-methylpyridin-2-yl)oxy)phenyl)-1,2,3,4-tetrahydropyrrolo[1,2-a]pyrazine-8-carboxamide]	100 to 1000			100 to 1000	> 1000	10 to 100
